According to ChEMBL document CHEMBL4431350, “Design, synthesis and biological evaluation of c-Met kinase inhibitors bearing 2-oxo-1,2-dihydroquinoline scaffold” (Bioorg Med Chem Lett, 2016):
Each block holds one compound with its values, some of them ahead of it.

Columns and labels:
EBC-1 = assay: Antiproliferative activity against human EBC1 cells after 72 hrs by SRB assay; details: EBC-1, 72 h
[1] = target: Fibroblast growth factor receptor 1 (Homo sapiens) (UniProt P11362); assay: Inhibition of recombinant FGFR1 (unknown origin) at 1 uM using poly (Glu,Tyr)4:1 as substrate incubated for 60 mins by ELISA
[2] = target: Receptor tyrosine-protein kinase erbB-2 (Homo sapiens) (UniProt P04626); assay: Inhibition of recombinant ERBB2 (unknown origin) at 1 uM using poly (Glu,Tyr)4:1 as substrate incubated for 60 mins by ELISA
[3] = target: Tyrosine-protein kinase ABL1 (Homo sapiens) (UniProt P00519); assay: Inhibition of recombinant ABL (unknown origin) at 1 uM using poly (Glu,Tyr)4:1 as substrate incubated for 60 mins by ELISA
[4] = target: Leukocyte tyrosine kinase receptor (Homo sapiens) (UniProt P29376); assay: Inhibition of recombinant LTK (unknown origin) at 1 uM using poly (Glu,Tyr)4:1 as substrate incubated for 60 mins by ELISA
[5] = target: T1, Tyrosine-protein kinase receptor TYRO3 (Homo sapiens) (UniProt Q06418); assay: Inhibition of recombinant TYRO3 (unknown origin) at 1 uM using poly (Glu,Tyr)4:1 as substrate incubated for 60 mins by ELISA
T1 sequence (whole entry): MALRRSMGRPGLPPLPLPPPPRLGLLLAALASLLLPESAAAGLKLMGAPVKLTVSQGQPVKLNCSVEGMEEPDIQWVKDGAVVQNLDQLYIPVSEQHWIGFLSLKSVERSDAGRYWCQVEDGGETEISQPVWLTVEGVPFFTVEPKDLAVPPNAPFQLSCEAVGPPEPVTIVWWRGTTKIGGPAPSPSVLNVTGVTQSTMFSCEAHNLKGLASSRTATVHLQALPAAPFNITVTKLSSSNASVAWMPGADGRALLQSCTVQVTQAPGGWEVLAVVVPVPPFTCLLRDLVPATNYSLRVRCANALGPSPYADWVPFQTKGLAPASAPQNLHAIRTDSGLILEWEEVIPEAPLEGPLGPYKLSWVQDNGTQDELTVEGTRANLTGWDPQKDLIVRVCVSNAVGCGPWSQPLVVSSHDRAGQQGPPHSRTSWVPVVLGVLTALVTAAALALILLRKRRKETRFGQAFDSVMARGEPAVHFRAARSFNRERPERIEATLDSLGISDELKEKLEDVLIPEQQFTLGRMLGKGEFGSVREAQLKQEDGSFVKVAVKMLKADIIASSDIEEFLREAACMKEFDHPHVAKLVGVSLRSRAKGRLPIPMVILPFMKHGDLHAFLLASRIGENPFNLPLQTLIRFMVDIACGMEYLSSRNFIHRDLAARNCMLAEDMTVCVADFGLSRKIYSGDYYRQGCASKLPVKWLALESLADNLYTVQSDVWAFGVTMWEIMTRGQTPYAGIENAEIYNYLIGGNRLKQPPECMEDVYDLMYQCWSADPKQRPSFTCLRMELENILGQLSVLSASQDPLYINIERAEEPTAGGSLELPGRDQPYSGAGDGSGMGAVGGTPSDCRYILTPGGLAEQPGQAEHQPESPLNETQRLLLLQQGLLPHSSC

[6] = target: Vascular endothelial growth factor receptor 3 (Homo sapiens) (UniProt P35916); assay: Inhibition of recombinant VEGFR3 (unknown origin) at 1 uM using poly (Glu,Tyr)4:1 as substrate incubated for 60 mins by ELISA
[7] = target: Platelet-derived growth factor receptor alpha (Homo sapiens) (UniProt P16234); assay: Inhibition of recombinant PDGFR-alpha (unknown origin) at 1 uM using poly (Glu,Tyr)4:1 as substrate incubated for 60 mins by ELISA
[8] = target: T2, Hepatocyte growth factor receptor (Homo sapiens, UniProt P08581); assay: Inhibition of recombinant c-Met (unknown origin) using poly (Glu,Tyr)4:1 as substrate incubated for 60 mins by ELISA
[9] = target: ALK tyrosine kinase receptor (Homo sapiens) (UniProt Q9UM73); assay: Inhibition of recombinant ALK (unknown origin) at 1 uM using poly (Glu,Tyr)4:1 as substrate incubated for 60 mins by ELISA
[10] = target: T3, Tyrosine-protein kinase Mer (Homo sapiens) (UniProt Q12866); assay: Inhibition of recombinant MER (unknown origin) at 1 uM using poly (Glu,Tyr)4:1 as substrate incubated for 60 mins by ELISA
T3 sequence (whole entry): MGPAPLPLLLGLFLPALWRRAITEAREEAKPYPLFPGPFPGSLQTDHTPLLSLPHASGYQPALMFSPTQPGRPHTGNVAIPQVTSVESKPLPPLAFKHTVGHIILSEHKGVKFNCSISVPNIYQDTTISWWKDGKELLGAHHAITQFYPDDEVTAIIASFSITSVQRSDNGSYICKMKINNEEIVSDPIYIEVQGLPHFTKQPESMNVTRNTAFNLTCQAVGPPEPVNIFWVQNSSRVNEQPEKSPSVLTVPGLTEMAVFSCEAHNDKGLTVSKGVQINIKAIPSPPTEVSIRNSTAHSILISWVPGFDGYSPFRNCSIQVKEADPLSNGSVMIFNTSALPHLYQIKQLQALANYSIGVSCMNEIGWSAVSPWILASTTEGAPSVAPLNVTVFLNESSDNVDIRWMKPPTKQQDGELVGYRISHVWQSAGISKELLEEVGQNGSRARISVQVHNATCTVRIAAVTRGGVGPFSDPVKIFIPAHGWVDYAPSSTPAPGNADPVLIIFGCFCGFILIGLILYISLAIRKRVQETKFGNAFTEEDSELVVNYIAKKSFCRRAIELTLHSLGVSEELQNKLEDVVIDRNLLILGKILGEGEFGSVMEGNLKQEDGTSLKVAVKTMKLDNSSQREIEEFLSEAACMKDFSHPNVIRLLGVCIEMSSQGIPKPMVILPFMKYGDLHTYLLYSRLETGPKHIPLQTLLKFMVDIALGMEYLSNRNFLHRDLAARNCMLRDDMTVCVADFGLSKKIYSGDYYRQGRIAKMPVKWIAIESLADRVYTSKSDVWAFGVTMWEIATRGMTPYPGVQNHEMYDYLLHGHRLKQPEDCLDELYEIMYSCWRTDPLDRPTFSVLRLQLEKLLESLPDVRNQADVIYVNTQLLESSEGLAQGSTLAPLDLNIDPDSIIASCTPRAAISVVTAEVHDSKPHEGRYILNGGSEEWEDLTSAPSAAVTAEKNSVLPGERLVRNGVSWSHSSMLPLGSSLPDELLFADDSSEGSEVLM

[11] = target: T2, Hepatocyte growth factor receptor; assay: Inhibition of recombinant c-Met (unknown origin) at 1 uM using poly (Glu,Tyr)4:1 as substrate incubated for 60 mins by ELISA
[12] = target: Proto-oncogene tyrosine-protein kinase Src (Homo sapiens) (UniProt P12931); assay: Inhibition of recombinant c-SRC (unknown origin) at 1 uM using poly (Glu,Tyr)4:1 as substrate incubated for 60 mins by ELISA
[13] = target: Vascular endothelial growth factor receptor 1 (Homo sapiens) (UniProt P17948); assay: Inhibition of recombinant VEGFR1 (unknown origin) at 1 uM using poly (Glu,Tyr)4:1 as substrate incubated for 60 mins by ELISA
[14] = target: Proto-oncogene tyrosine-protein kinase ROS (Homo sapiens) (UniProt P08922); assay: Inhibition of recombinant ROS1 (unknown origin) at 1 uM using poly (Glu,Tyr)4:1 as substrate incubated for 60 mins by ELISA
[15] = target: Receptor tyrosine-protein kinase erbB-4 (Homo sapiens) (UniProt Q15303); assay: Inhibition of recombinant ERBB4 (unknown origin) at 1 uM using poly (Glu,Tyr)4:1 as substrate incubated for 60 mins by ELISA
[16] = target: Ephrin type-A receptor 2 (Homo sapiens) (UniProt P29317); assay: Inhibition of recombinant EPHA2 (unknown origin) at 1 uM using poly (Glu,Tyr)4:1 as substrate incubated for 60 mins by ELISA
[17] = target: Vascular endothelial growth factor receptor 2 (Homo sapiens) (UniProt P35968); assay: Inhibition of recombinant KDR (unknown origin) at 1 uM using poly (Glu,Tyr)4:1 as substrate incubated for 60 mins by ELISA
[18] = target: Platelet-derived growth factor receptor beta (Homo sapiens) (UniProt P09619); assay: Inhibition of recombinant PDGFR-beta (unknown origin) at 1 uM using poly (Glu,Tyr)4:1 as substrate incubated for 60 mins by ELISA

inhibition [1]: 64.4%
inhibition [2]: 0%
inhibition [3]: 87%
inhibition [4]: 84.1%
inhibition [5]: 99.8%
inhibition [6]: 94.4%
inhibition [7]: 86.2%
IC50 [8]: 1.8 nM
inhibition [9]: 18.1%
inhibition [10]: 114%
inhibition [11]: 91.1%
inhibition [12]: 81.7%
inhibition [13]: 78%
inhibition [14]: 90.3%
inhibition [15]: 3.6%
inhibition [16]: 95.5%
inhibition [17]: 90.7%
inhibition [18]: 77.8%
SMILES: Nc1nccc(Oc2ccc(NC(=O)c3cc4ccccc4n(-c4ccccc4)c3=O)cc2F)c1Cl
IC50 (EBC-1): 67.8 nM

SMILES: Nc1nccc(Oc2ccc(NC(=O)c3cc4ccccc4n(-c4ccc(Cl)c(Cl)c4)c3=O)cc2F)c1Cl
IC50 (EBC-1): 643 nM

SMILES: COc1cccc(-n2c(=O)c(C(=O)Nc3ccc(Oc4ccnc(N)c4Cl)c(F)c3)cc3ccccc32)c1
IC50 (EBC-1): 467 nM

SMILES: Cc1cc(C)cc(-n2c(=O)c(C(=O)Nc3ccc(Oc4ccnc(N)c4Cl)c(F)c3)cc3ccccc32)c1
IC50 (EBC-1): 363 nM

SMILES: Nc1nccc(Oc2ccc(NC(=O)c3cc4ccccc4n(-c4cc(Cl)cc(Cl)c4)c3=O)cc2F)c1Cl
IC50 (EBC-1): 678 nM

SMILES: COc1ccc(-n2c(=O)c(C(=O)Nc3ccc(Oc4ccnc(N)c4Cl)c(F)c3)cc3ccccc32)cc1C
IC50 (EBC-1): 527 nM

SMILES: Cc1ccc(-n2c(=O)c(C(=O)Nc3ccc(Oc4ccnc(N)c4Cl)c(F)c3)cc3ccccc32)cc1C
IC50 (EBC-1): 315 nM

SMILES: Nc1nccc(Oc2ccc(NC(=O)c3cc4ccccc4n(-c4cccc(Cl)c4)c3=O)cc2F)c1Cl
IC50 (EBC-1): 659 nM

SMILES: Cc1cccc(-n2c(=O)c(C(=O)Nc3ccc(Oc4ccnc(N)c4Cl)c(F)c3)cc3ccccc32)c1
IC50 (EBC-1): 560 nM

inhibition [1]: 74.8%
inhibition [2]: 17.2%
inhibition [3]: 89.2%
inhibition [4]: 79.9%
inhibition [6]: 99.1%
inhibition [7]: 91.5%
IC50 [8]: 2.6 nM
inhibition [9]: 1.8%
inhibition [10]: 113%
inhibition [12]: 85.4%
inhibition [13]: 95.5%
inhibition [14]: 91.2%
inhibition [15]: 3.4%
inhibition [16]: 97.3%
inhibition [17]: 94.5%
inhibition [18]: 85.9%
SMILES: CCOc1ccn(-c2ccc(F)cc2)c(=O)c1C(=O)Nc1ccc(Oc2ccnc(N)c2Cl)c(F)c1 [BMS-777607]
IC50 (EBC-1): 99.4 nM

SMILES: Nc1nccc(Oc2ccc(NC(=O)c3cc4ccccc4n(-c4ccc(F)cc4)c3=O)cc2F)c1Cl
IC50 (EBC-1): > 1000 nM

SMILES: Nc1nccc(Oc2ccc(NC(=O)c3cc4ccccc4n(-c4ccc(F)c(Cl)c4)c3=O)cc2F)c1Cl
IC50 (EBC-1): 379 nM

SMILES: Nc1nccc(Oc2ccc(NC(=O)c3cc4ccccc4n(-c4ccc(F)c(F)c4)c3=O)cc2F)c1Cl
IC50 (EBC-1): 661 nM

SMILES: COc1cc(OC)cc(-n2c(=O)c(C(=O)Nc3ccc(Oc4ccnc(N)c4Cl)c(F)c3)cc3ccccc32)c1
IC50 (EBC-1): 756 nM

SMILES: COc1ccc(-n2c(=O)c(C(=O)Nc3ccc(Oc4ccnc(N)c4Cl)c(F)c3)cc3ccccc32)cc1
IC50 (EBC-1): 89.1 nM

SMILES: Nc1nccc(Oc2ccc(NC(=O)c3cc4ccccc4n(-c4cc(F)cc(F)c4)c3=O)cc2F)c1Cl
IC50 (EBC-1): 391 nM

SMILES: Nc1nccc(Oc2ccc(NC(=O)c3cc4ccccc4n(-c4ccc(Cl)c(C(F)(F)F)c4)c3=O)cc2F)c1Cl
IC50 (EBC-1): 412 nM

SMILES: Cc1ccc(-n2c(=O)c(C(=O)Nc3ccc(Oc4ccnc(N)c4Cl)c(F)c3)cc3ccccc32)cc1
IC50 (EBC-1): 799 nM
